Active and inactive are the calls of the source. The rule behind the calls is not given here.
Key:
Triticum aestivum [1] = assay: Phytotoxicity in Triticum aestivum (wheat) assessed as injury at 1 g/ha post emergence application measured after 21 days after treatment; format: organism-based; conditions: in vivo, other, 504 h
Veronica hederifolia [2] = assay: Herbicidal activity against Veronica hederaefolia assessed as killing at 3 g/ha post emergence application measured after 21 days after treatment; format: functional
Galium aparine [3] = assay: Herbicidal activity against Galium aparine assessed as killing at 300 g/ha post emergence application measured after 21 days after treatment; format: functional
Veronica hederifolia [4] = assay: Herbicidal activity against Veronica hederaefolia assessed as killing at 300 g/ha post emergence application measured after 21 days after treatment; format: functional
Alopecurus myosuroides [5] = assay: Herbicidal activity against Alopecurus myosuroides assessed as killing at 0.3 g/ha post emergence application measured after 21 days after treatment; format: functional, organism-based
Triticum aestivum [6] = assay: Phytotoxicity in Triticum aestivum (wheat) assessed as injury at 100 g/ha pre emergence application measured after 21 days after treatment; format: organism-based; conditions: in vivo, other, 504 h
Alopecurus myosuroides [7] = assay: Herbicidal activity against Alopecurus myosuroides assessed as killing at 10 g/ha pre emergence application measured after 21 days after treatment; format: functional, organism-based
Veronica hederifolia [8] = assay: Herbicidal activity against Veronica hederaefolia assessed as killing at 100 g/ha post emergence application measured after 21 days after treatment; format: functional
Triticum aestivum [9] = assay: Phytotoxicity in Triticum aestivum (wheat) assessed as injury at 10 g/ha pre emergence application measured after 21 days after treatment; format: organism-based; conditions: in vivo, other, 504 h
Galium aparine [10] = assay: Herbicidal activity against Galium aparine assessed as killing at 10 g/ha post emergence application measured after 21 days after treatment; format: functional
Galium aparine [11] = assay: Herbicidal activity against Galium aparine assessed as killing at 30 g/ha post emergence application measured after 21 days after treatment; format: functional
[12] = target: T1, Protoporphyrinogen oxidase (Medicago truncatula) (UniProt G7L3C0); assay: Inhibition of Viola arvensis protoporphyrinogen oxidase by post-emergence herbicidal activity assay
T1 sequence (whole entry): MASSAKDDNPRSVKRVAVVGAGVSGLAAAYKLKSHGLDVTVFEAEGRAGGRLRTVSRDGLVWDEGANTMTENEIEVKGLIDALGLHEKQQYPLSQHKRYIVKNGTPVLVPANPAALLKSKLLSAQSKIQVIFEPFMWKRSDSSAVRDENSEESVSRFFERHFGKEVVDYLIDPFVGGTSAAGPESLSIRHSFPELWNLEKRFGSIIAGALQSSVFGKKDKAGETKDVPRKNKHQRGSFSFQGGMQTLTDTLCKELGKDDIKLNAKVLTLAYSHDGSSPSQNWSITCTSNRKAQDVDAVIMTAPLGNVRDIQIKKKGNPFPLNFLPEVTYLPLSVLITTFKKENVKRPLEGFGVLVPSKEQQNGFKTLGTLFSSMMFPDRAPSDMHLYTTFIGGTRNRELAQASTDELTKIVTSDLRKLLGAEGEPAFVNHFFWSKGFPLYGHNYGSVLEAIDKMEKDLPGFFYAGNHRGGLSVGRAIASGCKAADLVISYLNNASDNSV

Stellaria media [13] = assay: Herbicidal activity against Stellaria media assessed as killing at 0.3 g/ha post emergence application measured after 21 days after treatment; format: functional
Viola arvensis [14] = assay: Herbicidal activity against Viola arvensis assessed as killing at 3 g/ha post emergence application measured after 21 days after treatment; format: functional
Avena fatua [15] = assay: Herbicidal activity against Avena fatua assessed as killing at 10 g/ha pre emergence application measured after 21 days after treatment; format: functional, organism-based
Viola arvensis [16] = assay: Herbicidal activity against Viola arvensis assessed as killing at 1 g/ha post emergence application measured after 21 days after treatment; format: functional
Stellaria media [17] = assay: Herbicidal activity against Stellaria media assessed as killing at 1 g/ha post emergence application measured after 21 days after treatment; format: functional
Alopecurus myosuroides [18] = assay: Herbicidal activity against Alopecurus myosuroides assessed as killing at 1 g/ha post emergence application measured after 21 days after treatment; format: functional, organism-based
Avena fatua [19] = assay: Herbicidal activity against Avena fatua assessed as killing at 1 g/ha post emergence application measured after 21 days after treatment; format: functional
Viola arvensis [20] = assay: Herbicidal activity against Viola arvensis assessed as killing at 10 g/ha pre emergence application measured after 21 days after treatment; format: functional
Viola arvensis [21] = assay: Herbicidal activity against Viola arvensis assessed as killing at 30 g/ha post emergence application measured after 21 days after treatment; format: functional
Viola arvensis [22] = assay: Ratio of compound ED90 to ioxynil ED90 for herbicidal activity against Viola arvensis
Avena fatua [23] = assay: Herbicidal activity against Avena fatua assessed as killing at 100 g/ha post emergence application measured after 21 days after treatment; format: functional
Triticum aestivum [24] = assay: Phytotoxicity in Triticum aestivum (wheat) assessed as injury at 30 g/ha pre emergence application measured after 21 days after treatment; format: organism-based; conditions: in vivo, other, 504 h
Galium aparine [25] = assay: Herbicidal activity against Galium aparine assessed as killing at 0.3 g/ha post emergence application measured after 21 days after treatment; format: functional
Viola arvensis [26] = assay: Herbicidal activity against Viola arvensis assessed as killing at 10 g/ha post emergence application measured after 21 days after treatment; format: functional
Hordeum vulgare = assay: Phytotoxicity in Hordeum vulgare (barley) assessed as injury at 10 g/ha pre emergence application measured after 21 days after treatment; format: organism-based; conditions: in vivo, other, 504 h
Galium aparine [27] = assay: Herbicidal activity against Galium aparine assessed as killing at 100 g/ha post emergence application measured after 21 days after treatment; format: functional
Alopecurus myosuroides [28] = assay: Herbicidal activity against Alopecurus myosuroides assessed as killing at 30 g/ha post emergence application measured after 21 days after treatment; format: functional, organism-based
Galium aparine [29] = assay: Herbicidal activity against Galium aparine assessed as killing at 1 g/ha post emergence application measured after 21 days after treatment; format: functional
Avena fatua [30] = assay: Herbicidal activity against Avena fatua assessed as killing at 0.3 g/ha post emergence application measured after 21 days after treatment; format: functional, organism-based
[31] = Ratio of compound ED90 to […] ED90 for herbicidal activity against Matricaria inodora
[32] = target: T2, Protoporphyrinogen IX oxidase (Cichorium intybus) (UniProt Q9SPL6); assay: Inhibition of Tripleurospermum maritimum subsp. inodorum protoporphyrinogen oxidase by post-emergence herbicidal activity assay
T2 sequence (whole entry): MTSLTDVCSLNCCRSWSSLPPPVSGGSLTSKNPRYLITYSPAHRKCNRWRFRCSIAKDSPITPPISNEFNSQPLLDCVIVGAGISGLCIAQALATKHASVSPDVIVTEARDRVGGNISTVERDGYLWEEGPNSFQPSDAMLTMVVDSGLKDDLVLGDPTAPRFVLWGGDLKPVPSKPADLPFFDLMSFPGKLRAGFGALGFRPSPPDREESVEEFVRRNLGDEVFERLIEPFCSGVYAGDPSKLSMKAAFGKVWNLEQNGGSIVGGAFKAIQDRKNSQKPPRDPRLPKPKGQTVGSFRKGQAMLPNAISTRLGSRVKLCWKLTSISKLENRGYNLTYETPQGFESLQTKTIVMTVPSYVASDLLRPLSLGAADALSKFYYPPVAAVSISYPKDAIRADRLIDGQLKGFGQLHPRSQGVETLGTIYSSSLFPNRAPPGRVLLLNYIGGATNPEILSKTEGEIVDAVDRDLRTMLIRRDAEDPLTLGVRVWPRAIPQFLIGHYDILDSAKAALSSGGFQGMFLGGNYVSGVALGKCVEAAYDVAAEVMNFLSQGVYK

Avena fatua [33] = assay: Herbicidal activity against Avena fatua assessed as killing at 30 g/ha post emergence application measured after 21 days after treatment; format: functional, organism-based

**Q.** Which results are given for `CCOC(=O)COc1cc(-c2nn(C)c(OC(F)F)c2Cl)c(F)cc1Cl` [PYRAFLUFEN-ETHYL]?
**A.** Activity (Triticum aestivum [1]): Non-toxic; Activity (Veronica hederifolia [2]): 100%; Activity (Galium aparine [3]): 50%; Activity (Veronica hederifolia [4]): 80%; Activity (Alopecurus myosuroides [5]): inactive; Activity (Triticum aestivum [6]): 1%; Activity (Alopecurus myosuroides [7]): inactive; Activity (Veronica hederifolia [8]): 21%; Activity (Triticum aestivum [9]): Non-toxic; Activity (Galium aparine [10]): 100%; Activity (Galium aparine [11]): 21%; ED90 [12]: 5 gAi/ha; Activity (Stellaria media [13]): 90%; Activity (Viola arvensis [14]): 80%; Activity (Avena fatua [15]): inactive; Activity (Viola arvensis [16]): 80%; Activity (Stellaria media [17]): 100%; Activity (Alopecurus myosuroides [18]): inactive; Activity (Avena fatua [19]): 1%; Activity (Viola arvensis [20]): 11%; Activity (Viola arvensis [21]): 40%; Ratio (Viola arvensis [22]): 10; Activity (Avena fatua [23]): 1%; Activity (Triticum aestivum [24]): Non-toxic; Activity (Galium aparine [25]): 60%; Activity (Viola arvensis [26]): 100%; Activity (Hordeum vulgare): Non-toxic; Activity (Galium aparine [27]): 40%; Activity (Alopecurus myosuroides [28]): inactive; Activity (Galium aparine [29]): 80%; Activity (Avena fatua [30]): inactive; Ratio [31]: 3330; ED90 [32]: 0.3 gAi/ha; Activity (Avena fatua [33]): inactive

— ChEMBL document CHEMBL3044865, “Herbicidal Activity and Characteristics of Pyraflufen-ethyl for Controlling Broad-leaved Weeds in Cereals” (J Pestic Sci, 2002)
